Data: patent US10045983B2, “Heteroaryl pyridone and aza-pyrodine compounds” (Genentech, Inc., priority 2011, dated 2018)
Like-named read-outs stand apart in the source and are kept apart here.

Assay: CD69 Whole Blood Assay (CD69 Hu Blood FACS)
Assay type: cell-based, human
Details: Lymphocyte
Procedure, shortened: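 Human whole blood stimulated by crosslinking surface IgM with goat F(ab′)2 anti-human IgM; inhibition of CD69 expression on B lymphocytes measured by flow cytometry.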

[1] = human whole blood, anti-IgM activated B lymphocytes, FACS, IC70, Table 1, read-out: CD69 Hu Blood FACS IC70
[2] = human whole blood, anti-IgM activated B lymphocytes, FACS, IC70, Table 2 (unit inferred), read-out: CD69 Hu Blood FACS (IC70)

SMILES | IC70 [1] [µM] | IC70 [2] [µM] | further results
Cn1cc(-c2ccnc(N3CCn4c(cc5c4CCCC5)C3=O)c2CO)cc(Nc2ccc(N3CCN(C4COC4)CC3(C)C)cn2)c1=O [Example 187, 2-(4-(5-(5-(2,2-dimethyl-4-(oxetan-3-yl)piperazin-1-yl)pyridin-2-ylamino)-1-methyl-6-oxo-1,6-dihydropyridin-3-yl)-3-(hydroxymethyl)pyridin-2-yl)-3,4,6,7,8,9-hexahydropyrazino[1,2-a]indol-1(2H)-one] | 0.0451 |  | 
Cn1cc(-c2ccnc(N3CCn4c(cc5c4CC(C)(C)C5)C3=O)c2CO)cc(Nc2ccc(C(=O)N3CCOCC3)cn2)c1=O [Example 269, 3-[3-(hydroxymethyl)-4-[1-methyl-5-[[5-(morpholine-4-carbonyl)-2-pyridyl]amino]-6-oxo-3-pyridyl]-2-pyridyl]-7,7-dimethyl-1,2,6,8-tetrahydrocyclopenta[3,4]pyrrolo[3,5-b]pyrazin-4-one] |  | 0.0251 | 
C[C@H]1CN(C2COC2)CCN1c1ccc(Nc2cc(-c3ccnc(-n4ccc5c(cc6n5CCCC6)c4=O)c3CO)cn(C)c2=O)nc1 [Example 245, (S)-2-(3-(Hydroxymethyl)-4-(1-methyl-5-(5-(2-methyl-4-(oxetan-3-yl)piperazin-1-yl)pyridin-2-ylamino)-6-oxo-1,6-dihydropyridin-3-yl)pyridin-2-yl)-6,7,8,9-tetrahydropyrido[3,4-b]indolizin-1(2H)-one] |  | 0.065 | 
C[C@H]1CN(C2COC2)CCN1c1ccc(Nc2cc(-c3ccnc(-n4ncc5c6c(sc5c4=O)CCCC6)c3CO)cn(C)c2=O)nc1 [Example 191, 5-[3-(Hydroxymethyl)-4-[1-methyl-5-({5-[(2S)-2-methyl-4-(oxetan-3-yl)pipera-zin-1-yl]pyridin-2-yl}amino)-6-oxo-1,6-dihydropyridin-3-yl]pyridin-2-yl]-8-thia-4,5-diazatricyclo[7.4.0.0^2,7]trideca-1(9),2(7),3-trien-6-one] |  | 0.0435 | 
Cn1cc(-c2ccnc(N3CCc4c(c(F)c5n4CCCC5)C3=O)c2CO)cc(Nc2cc3n(n2)CCN(C2COC2)C3)c1=O [Example 284, 10-fluoro-2-[3-(hydroxymethyl)-4-[1-methyl-5-[[5-(oxetan-3-yl)-6,7-dihydro-4H-pyrazolo[1,5-a]pyrazin-2-yl]amino]-6-oxo-3-pyridyl]-2-pyridyl]-3,4,6,7,8,9-hexahydropyrido[3,4-b]indolizin-1-one] |  | 0.131 | 
COCCN1CCn2nc(Nc3cc(-c4cncc(N5CCn6c(cc7c6CC(C)(C)C7)C5=O)c4CO)cn(C)c3=O)cc2C1 [Example 328, 3-[4-(hydroxymethyl)-5-[5-[[5-(2-methoxyethyl)-6,7-dihydro-4H-pyrazolo[1,5-a]pyrazin-2-yl]amino]-1-methyl-6-oxo-3-pyridyl]-3-pyridyl]-7,7-dimethyl-1,2,6,8-tetrahydrocyclopenta[3,4]pyrrolo[3,5-b]pyrazin-4-one] |  | 0.0124 | 
Cn1cc(-c2ccnc(N3CCn4c(cc5c4CC(C)(C)C5)C3=O)c2CO)cc(Nc2ccc(N3CCN(C4COC4)CC3)cn2)c1=O [Example 108, 2-(3-(Hydroxymethyl)-4-(1-methyl-5-(5-(4-(oxetan-3-yl)piperazin-1-yl)pyridin-2-ylamino)-6-oxo-1,6-dihydropyridin-3-yl)pyridin-2-yl)-4,4-dimethyl-1,10-diazatricyclo[6.4.0.0^2,6]dodeca-2(6),7-dien-9-one] | 0.0319 |  | 
Cc1nccc(Nc2cc(-c3ccnc(N4CCn5c(cc6c5CC(C)(C)C6)C4=O)c3CO)c[nH]c2=O)n1 [Example 222, 3-[3-(hydroxymethyl)-4-[5-[(2-methylpyrimidin-4-yl)amino]-6-oxo-1H-pyridin-3-yl]-2-pyridyl]-7,7-dimethyl-1,2,6,8-tetrahydrocyclopenta[3,4]pyrrolo[3,5-b]pyrazin-4-one] |  | 0.178 | 
Cc1nccc(Nc2cc(-c3ccnc(N4CCn5c6c(c(F)c5C4=O)CCCC6)c3CO)cn(C)c2=O)n1 [Example 213, 10-fluoro-2-[3-(hydroxymethyl)-4-[1-methyl-5-[(2-methylpyrimidin-4-yl)amino]-6-oxo-3-pyridyl]-2-pyridyl]-3,4,6,7,8,9-hexahydropyrazino[1,2-a]indol-1-one] |  | 0.62 | 
COCCN1CCn2nc(Nc3cc(-c4nccc(N5CCn6c(cc7c6CC(C)(C)C7)C5=O)c4CO)cn(C)c3=O)cc2C1 [Example 329, 3-[3-(hydroxymethyl)-2-[5-[[5-(2-methoxyethyl)-6,7-dihydro-4H-pyrazolo[1,5-a]pyrazin-2-yl]amino]-1-methyl-6-oxo-3-pyridyl]-4-pyridyl]-7,7-dimethyl-1,2,6,8-tetrahydrocyclopenta[3,4]pyrrolo[3,5-b]pyrazin-4-one] |  | 0.11 | 
Cn1cc(-c2cncc(N3CCn4c(cc5c4CC(C)(C)C5)C3=O)c2CO)cc(Nc2ccc(N3CCN(C4COC4)CC3)cn2)c1=O [Example 107, 10-[4-[1-Methyl-5-({5-[4-(oxetan-3-yl)piperazin-1-yl]pyridine-2-yl}amino)-6-oxo-1,6-dihydropyridin-3-yl]-4-(hydroxymethyl)pyridin-3-yl]-4,4-dimethyl-1,10-diazatricyclo[6.4.0.0^2,6]dodeca-2(6),7-dien-9-one] | 0.0216 |  | 
Cn1cc(-c2ccnc(N3CCn4c(cc5c4CCCC5)C3=O)c2CO)cc(Nc2ccc(N3[C@@H]4CC[C@H]3CN(C3COC3)C4)cn2)c1=O [Example 152, 2-{3′-Hydroxymethyl-1-methyl-5-[5-((1 S,5R)-3-oxetan-3-yl-3,8-diaza-bicyclo[3.2.1]oct-8-yl)-pyridin-2-ylamino]-6-oxo-1,6-dihydro-[3,4′]bipyridinyl-2′-yl}-3,4,6,7,8,9-hexahydro-2H-pyrazino[1,2-a]indol-1-one] |  |  | IC70 (Homo sapiens, read-out: CD69 Hu Blood FACS IC70 (μM)): 0.188 µM
C[C@H]1CN(C2COC2)CCN1c1ccc(Nc2cc(-c3ccnc(N4CCn5c(cc6c5CC(C)(C)C6)C4=O)c3CO)c[nH]c2=O)nc1 [Example 271, 3-[3-(hydroxymethyl)-4-[5-[[5-[(2S)-2-methyl-4-(oxetan-3-yl)piperazin-1-yl]-2-pyridyl]amino]-6-oxo-1H-pyridin-3-yl]-2-pyridyl]-7,7-dimethyl-1,2,6,8-tetrahydrocyclopenta[3,4]pyrrolo[3,5-b]pyrazin-4-one] |  | 0.0245 | 
COCCN1CCN(c2ccc(Nc3cc(-c4ccnc(N5CCn6c(cc7c6CC(C)(C)C7)C5=O)c4CO)cn(C)c3=O)nc2)[C@@H](C)C1 [Example 340, 3-[3-(hydroxymethyl)-4-[5-[[5-[(2S)-4-(2-methoxyethyl)-2-methyl-piperazin-1-yl]-2-pyridyl]amino]-1-methyl-6-oxo-3-pyridyl]-2-pyridyl]-7,7-dimethyl-1,2,6,8-tetrahydrocyclopenta[3,4]pyrrolo[3,5-b]pyrazin-4-one] |  | 0.0207 | 
Cn1cc(-c2ccnc(N3CCn4c(cc5c4CCCC5)C3=O)c2CO)cc(Nc2nccnn2)c1=O [Example 172, 2-(4-(5-(1,2,4-triazin-3-ylamino)-1-methyl-6-oxo-1,6-dihydropyridin-3-yl)-3-(hydroxymethyl)pyridin-2-yl)-3,4,6,7,8,9-hexahydropyrazino[1,2-a]indol-1(2H)-one] | 5 |  | 
Cn1cc(-c2ccnc(N3CCn4c5c(c(F)c4C3=O)CCCC5)c2CO)cc(Nc2ccc(N3CCN(C4COC4)CC3)cn2)c1=O [Example 134, 10-Fluoro-2-(3-(hydroxymethyl)-4-(1-methyl-5-(5-(4-(oxetan-3-yl)piperazin-1-yl)pyridin-2-ylamino)-6-oxo-1,6-dihydropyridin-3-yl)pyridin-2-yl)-3,4,6,7,8,9-hexahydropyrazino[1,2-a]indol-1(2H)-one] | 0.0944 |  | 
Cn1cc(-c2ccnc(N3CCn4c(cc5c4CC(C)(C)C5)C3=O)c2CO)cc(Nc2cnccn2)c1=O [Example 188, 2-[3′-Hydroxymethyl-1-methyl-6-oxo-5-(pyrazin-2-ylamino)-1,6-dihydro-[3,4′]bipyridinyl-2′-yl]-7,7-dimethyl-3,4,7,8-tetrahydro-2H,6H-cyclopenta[4,5]pyrrolo[1,2-a]pyrazin-1-one] | 0.601 |  | 
C[C@H]1CN(C2COC2)CCN1c1cnc(Nc2cc(-c3ccnc(N4CCn5c(cc6c5CC(C)(C)C6)C4=O)c3CO)cn(C)c2=O)cn1 [Example 235, 3-[3-(hydroxymethyl)-4-[1-methyl-5-[[5-[(2S)-2-methyl-4-(oxetan-3-yl)piperazin-1-yl]pyrazin-2-yl]amino]-6-oxo-3-pyridyl]-2-pyridyl]-7,7-dimethyl-1,2,6,8-tetrahydrocyclopenta[3,4]pyrrolo[3,5-b]pyrazin-4-one] |  | 0.112 | 
CN1CCn2nc(Nc3cc(-c4ccnc(N5CCn6c(cc7c6[C@H]6CC[C@@H]7C6)C5=O)c4CO)cn(C)c3=O)cc2C1 (stereo in doubt) [Example 167, 2-(3-(hydroxymethyl)-4-(1-methyl-5-(5-methyl-4,5,6,7-tetrahydropyrazolo[1,5-a]pyrazin-2-ylamino)-6-oxo-1,6-dihydropyridin-3-yl)pyridin-2-yl)-3,4,6,7,8,9-hexahydro-6,9-methanopyrazino[1,2-a]indol-1(2H)-one] | 0.119 |  | 
CC(=O)N1CCn2nc(Nc3cc(-c4ccnc(N5CCc6c(sc7c6CC(C)(C)C7)C5=O)c4CO)cn(C)c3=O)cc2C1 [Example 254, 3-[4-[5-[(5-acetyl-6,7-dihydro-4H-pyrazolo[1,5-a]pyrazin-2-yl)amino]-1-methyl-6-oxo-3-pyridyl]-3-(hydroxymethyl)-2-pyridyl]-7,7-dimethyl-1,2,6,8-tetrahydrocyclopenta[3,4]thieno[1,3-c]pyridin-4-one] |  | 0.0373 | 
Cn1cc(-c2ccnc(N3CCn4c(cc5c4CCCC5)C3=O)c2CO)cc(Nc2ccncn2)c1=O [Example 142, 2-[3′-Hydroxymethyl-1-methyl-6-oxo-5-(pyrimidin-4-ylamino)-1,6-dihydro-[3,4′]bipyridinyl-2′-yl]-3,4,6,7,8,9-hexahydro-2H-pyrazino[1,2-a]indol-1-one] | 2.1 |  | 
CCc1nccc(Nc2cc(-c3ccnc(N4CCn5c(cc6c5CC(C)(C)C6)C4=O)c3CO)cn(C)c2=O)n1 [Example 229, 3-[4-[5-[(2-ethylpyrimidin-4-yl)amino]-1-methyl-6-oxo-3-pyridyl]-3-(hydroxymethyl)-2-pyridyl]-7,7-dimethyl-1,2,6,8-tetrahydrocyclopenta[3,4]pyrrolo[3,5-b]pyrazin-4-one] |  | 0.583 | 
